Assay results: patent US7358352B2, “Nucleic acids encoding human TNF-α convertase” (Schering Corporation, priority 1996, dated 2008)
Like-named read-outs stand apart in the source and are kept apart here. The star is where a group is joined. MeOSuc = COC(=O)CCC(=O)*; CH2Cl = ClC*

How the values were obtained:
[1] = system: TNF-α convertases; assay: In vitro assays for TNF-α convertase activity (protease inhibitor profile); format: biochemical
Description: For the assay of convertase activity associated with or isolated from membrane preparations, a protein-based assay was carried out essentially as described by Mohler et al., Nature 370:218 (1995).
Briefly, a peptide-tagged recombinant human TNF-α protein substrate (Flag-TNF-α) was cloned and expressed in E. coli. The protein was purified by affinity chromatography using an M2 (anti-Flag)-Sepharose column (Kodak), and by ion exchange chromatography using a BIOCAD equipped with an HQ10 column.
To test for convertase activity, a membrane protein sample (12 μg) was mixed (in 12 μl) with 2 ng of ^125I-polypeptide substrate (approximately 50,000 cpm) in the presence of inhibitors of other proteolytic enzymes [e.g., 200 μM 4-(2-aminoethyl)-benzenesulfonyl fluoride hydrochloride (AEBSF), 2 μM pepstatin, 200 μM leupeptin, 1 mM methoxysuccinyl-Ala-Ala-Pro-Val-chloromethylketone (AAPV)], and with or without 2.5 mM EDTA. Following incubation at 37° C. overnight, samples were fractionated in a 16% sodium dodecylsulfate (SDS) gel and subjected to SDS polyacrylamide gel electrophoresis [SDS-PAGE; Laemmli, Nature 227:680 (1970)]. The gels were dried, and radioactivity was detected by autoradiography.
A polypeptide-based assay for TNF-α convertase activity was also carried out essentially using the method of Mohler et al., supra. Briefly, an amino-terminal dinitrophenylated peptide substrate, amidated at the carboxyl terminus (SEQ ID NO: 4) was synthesized and purified using standard procedures. Dinitrophenylated polypeptides corresponding to cleavage products expected for TNF-α convertase (a dinitrophenylated peptide having the sequence of residues 1-6 of SEQ ID NO: 4) and for other membrane proteases were also synthesized.
To test for convertase activity, a membrane protein sample was mixed in 50 μl with 1 μg peptide substrate in the presence of inhibitors (0.2 mM AEBSF, 2 μM pepstatin, 200 μM leupeptin, 1 mM AAPV). Following incubation at 37° C. for from 60 minutes to overnight, the protein was precipitated by cold 5% trichloroacetic acid (TCA), 20% acetonitrile, and the soluble peptide fraction was applied to a YMC 120 angstrom C-18 ODS-AQ column (4.6×100 mm; YMC, Inc.). The column was eluted isocratically at a flow rate of 1 ml/min using 40% acetonitrile plus 0.06% trifloroacetic acid. The elution of DNP-peptide was monitored at 360 nm using a Waters 625 LC system.

[2] = system: TNF-α secretion; settings: in vivo; cited from earlier work
[3] = system: TNF-α secretion; settings: in vitro; cited from earlier work
[4] = system: lethal dose of endotoxin; settings: mice; cited from earlier work
[5] = general property, concentration not given

Molecule: O[C@H](CS)[C@H](O)CS (racemic) [DTT, dithiothreitol]
- inhibition of TNF-α convertases [1, 5]: Inhibited

Molecule: CC(C)C[C@H](NC(=O)[C@H]1O[C@@H]1C(=O)O)C(=O)NCCCCN=C(N)N (relative stereo) [E64]
- inhibition of TNF-α convertases ([1]; 100 μM): Not inhibited

Molecule: c1cnc2c(c1)ccc1cccnc12 [1,10-phenanthroline]
- inhibition of TNF-α convertases [1, 5]: Inhibited

Molecule: O=c1oc(Cl)c(Cl)c2ccccc12 [DCI, dichloroisocoumarin]
- inhibition of TNF-α convertases ([1]; 100 μM): Not inhibited

Molecule: O=C(O)CN(CCN(CC(=O)O)CC(=O)O)CC(=O)O [EDTA, ethylenediaminetetraacetic acid]
- inhibition of TNF-α convertases [1, 5]: Inhibited
- band at the position of the 17 kDa human TNF-α cleavage product (SDS-PAGE autoradiography) ([1]; membrane protein sample, 125I Flag-TNF-α substrate, with or without 2.5 mM EDTA, 37° C. overnight): intensified bands from the samples incubated without EDTA

Molecule: CNC(=O)[C@H](Cc1ccccc1)NC(=O)[C@H](CC(C)C)[C@H](CSc1ccccc1)C(=O)NO [GI 129471]
- block of TNF-α secretion [2]: block TNF-α secretion
- block of TNF-α secretion [3]: block TNF-α secretion

Molecule: O=C(O)CI [IAA, iodoacetic acid]
- inhibition of TNF-α convertases ([1]; 1 mM): Not inhibited

Molecule: CC(C)CC(CC(=O)NO)C(=O)N[C@@H](Cc1ccc2ccccc2c1)C(=O)N[C@@H](C)C(=O)NCCN (stereo partly drawn) [N-{D,L-[2-(hydroxyaminocarbonyl)methyl]-4-methylpentanoyl}L-3-(2′naphthyl)-alanyl-L alanine, 2-aminoethyl amide]
- protection against a lethal dose of endotoxin [4]: protect mice against a lethal dose of endotoxin

Molecule: C[C@H](CS)C(=O)N1CCC[C@H]1C(=O)O [captopril]
- inhibition of TNF-α convertases ([1]; 100 μM): Not inhibited

Molecule: CC(C)C[C@H](NP(=O)(O)O[C@@H]1O[C@@H](C)[C@H](O)[C@@H](O)[C@H]1O)C(=O)N[C@@H](Cc1c[nH]c2ccccc12)C(=O)O [phosphoramidon]
- inhibition of TNF-α convertases ([1]; 300 μM): Not inhibited

Molecule: O=C(O)CNC(=O)C(CS)Cc1ccccc1 (centres unmarked) [thiorphan]
- inhibition of TNF-α convertases ([1]; 100 μM): Not inhibited

Molecule: TIMP-1: tissue inhibitor of metalloproteases-1
- inhibition of TNF-α convertases ([1]; 1 μg/ml): Not inhibited

Molecule: methoxysuccinyl-Ala-Ala-Pro-Val-chloromethylketone (MeOSuc-AAPV-CH2Cl)
- inhibition of TNF-α convertases ([1]; 1 mM): Not inhibited

Molecule: α-2 macroglobulin: protein protease inhibitor
- inhibition of TNF-α convertases [1, 5]: Inhibited

B1: SBTI: soybean trypsin inhibitor (protein, UniProt P01070 25-205, looked up)
Trypsin inhibitor A: DFVLDNEGNPLENGGTYYILSDITAFGGIRAAPTGNERCPLTVVQSRNELDKGIGTIISSPYRIRFIAEGHPLSLKFDSFAVIMLCVGIPTEWSVVEDLPEGPAVKIGENKDAMDGWFRLERVSDDEFNNYKLVFCPQQAEDDKCGDIGISIDHDDGTRRLVVSKNKPLVVQFQKLDKESL
- inhibition of TNF-α convertases ([1]; 1 μg/ml): Not inhibited
